Assay results: BindingDB's records for patent WO2022076495 (MERCK SHARP & DOHME CORP., 2022)
Where “and” joins values, the source holds several entries; their conditions need not be identical. Equal values may be shown once.

Target: T1, Diacylglycerol O-acyltransferase 2 (Homo sapiens, UniProt Q96PD7)
T1 sequence (Q96PD7 whole entry): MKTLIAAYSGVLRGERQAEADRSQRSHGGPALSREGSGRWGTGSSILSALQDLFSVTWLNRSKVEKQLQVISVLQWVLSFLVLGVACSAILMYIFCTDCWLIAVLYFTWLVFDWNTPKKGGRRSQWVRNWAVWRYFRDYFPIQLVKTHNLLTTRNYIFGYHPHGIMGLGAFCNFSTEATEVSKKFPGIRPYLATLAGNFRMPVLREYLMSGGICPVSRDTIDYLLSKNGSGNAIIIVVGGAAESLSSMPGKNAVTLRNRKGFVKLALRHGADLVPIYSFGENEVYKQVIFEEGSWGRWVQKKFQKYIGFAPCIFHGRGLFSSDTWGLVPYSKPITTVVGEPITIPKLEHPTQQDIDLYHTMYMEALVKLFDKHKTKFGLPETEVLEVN
Test: DGAT2 enzymatic activity assay
Experimental: DGAT2 activity was determined by measuring the amount of enzymatic product 13Ci8-triolein (13C-l,2,3-Tri(cis-9-octadecenoyl)glycerol) using the membrane prep mentioned above. The assay was carried out in ABgene 384-well assay plates in a final volume of 25 pL at rt. The assay mixture contained the following: assay buffer (100 mM Tris Cl, pH 7.0, 20 mM MgCl2, 5% ethanol), 25 pM of di olein, 5 μM of 13C oleoyl-CoA and 8 ng/pL of DGAT2 membrane.

SMILES	IC50
C[C@H](n1c(=O)n(-c2cc(OC(F)(F)F)ccc2F)c2cc(F)c(C(=O)NC3(C)CCS(=O)(=O)CC3)cc21)C(C)(C)O [WO2022076495, EXAMPLE 70a]	0.001 µM
C[C@@H](n1c(=O)n(-c2cccc(OC(F)F)c2)c2ccc(C(=O)NC3(C)CCS(=O)(=O)CC3)cc21)C(C)(C)O [WO2022076495, EXAMPLE 67b]	0.211 µM
CC(C)n1c(=O)n(-c2cccc(OC(F)F)c2)c2ncc(C(=O)NC3(C)CCS(=O)(=O)CC3)cc21 [WO2022076495, EXAMPLE 88]	0.062 µM
C[C@H](n1c(=O)n(-c2cc(OCC(F)F)ncc2F)c2ccc(C(=O)NC3(C)CCS(=O)(=O)CC3)cc21)C(C)(C)O [WO2022076495, EXAMPLE 72a]	0.0064 µM
CC(C)n1c(=O)n(-c2cccc(OC(F)F)c2)c2cc(F)c(C(=O)N[C@H]3CCC[C@@H]3O)cc21 [WO2022076495, EXAMPLE 28]	0.779 µM
C[C@H](n1c(=O)n(-c2cccc(OC(F)F)c2)c2ccc(C(=O)NC3(C)CCS(=O)(=O)CC3)cc21)C(C)(C)O [WO2022076495, EXAMPLE 67a]	0.0016 µM
CC(n1c(=O)n(-c2cc(OC(F)F)ccc2F)c2ccc(C(=O)NC3(C)CS(=O)(=O)C3)cc21)C(C)(C)O (stereo unspecified) [WO2022076495, EXAMPLE 65]	0.0007 µM
CC(C)n1c(=O)n(-c2cccc(OC(F)F)c2)c2cc(F)c(C(=O)N[C@H]3CCOC[C@@H]3O)cc21 [WO2022076495, EXAMPLE 29]	1.26 µM
CC(C)n1c(=O)n(-c2cccc(OC(F)F)c2)c2ccc(C(=O)NC3(C)CS(=O)(=O)C3)cc21 [WO2022076495, EXAMPLE 12]	0.088 µM and 0.122 µM
C[C@H](n1c(=O)n(-c2cccc(OCC(F)F)c2)c2ccc(C(=O)NC3(C)CCS(=O)(=O)CC3)cc21)C(C)(C)O [WO2022076495, EXAMPLE 68a]	0.0041 µM
CC1(NC(=O)c2cc3c(cc2F)n(-c2cccc(OC(F)F)c2)c(=O)n3CC(F)(F)F)CS(=O)(=O)C1 [WO2022076495, EXAMPLE 43]	0.202 µM
C[C@@H](n1c(=O)n(-c2cccc(OCC(F)F)c2)c2ccc(C(=O)NC3(C)CCS(=O)(=O)CC3)cc21)C(C)(C)O [WO2022076495, EXAMPLE 68b]	0.0018 µM
CCOc1cc(-n2c(=O)n(C(C)C)c3cc(C(=O)NC4(C)CS(=O)(=O)C4)ccc32)c(F)cn1 [WO2022076495, EXAMPLE 16]	0.031 µM
C[C@@H](n1c(=O)n(-c2cc(OC(F)(F)F)ccc2F)c2ccc(C(=O)NC3(C)CCS(=O)(=O)CC3)cc21)C(C)(C)O [WO2022076495, EXAMPLE 71b]	0.0054 µM
CC(C)n1c(=O)n(-c2cccc(OC(F)F)c2)c2cc(F)c(C(=O)N[C@H]3CCCC(F)(F)[C@H]3O)cc21 [WO2022076495, EXAMPLE 30]	0.031 µM
C[C@H](n1c(=O)n(-c2cc(OCC(F)F)ccc2F)c2cc(F)c(C(=O)NC3(C)CCS(=O)(=O)CC3)cc21)C(C)(C)O [WO2022076495, EXAMPLE 75a]	0.0015 µM
C[C@H](n1c(=O)n(-c2cc(OC(F)(F)F)ccc2F)c2ccc(C(=O)NC3(C)CCS(=O)(=O)CC3)cc21)C(C)(C)O [WO2022076495, EXAMPLE 71a]	0.071 µM
CC1(NC(=O)c2ccc3c(c2)n(S(=O)(=O)c2ccccc2)c(=O)n3-c2cccc(OC(F)F)c2)CCS(=O)(=O)CC1 [WO2022076495, EXAMPLE 86]	> 9.99 µM
C[C@H](n1c(=O)n(-c2cc(OCC(F)F)ccc2F)c2ccc(C(=O)NC3(C)CCS(=O)(=O)CC3)cc21)C(C)(C)O [WO2022076495, EXAMPLE 73a]	0.0026 µM
CCOc1cc(-n2c(=O)n([C@@H](C)C(C)(C)O)c3cc(C(=O)NC4(C)CCS(=O)(=O)CC4)ccc32)c(F)cn1 [WO2022076495, EXAMPLE 69a]	0.0097 µM
CC(C)n1c(=O)n(-c2cccc(OC(F)F)c2)c2cc(F)c(C(=O)N[C@H]3CCCC[C@@H]3O)cc21 [WO2022076495, EXAMPLE 35]	0.071 µM
C[C@@H](n1c(=O)n(-c2cc(OCC(F)F)ccc2F)c2ccc(C(=O)NC3(C)CCS(=O)(=O)CC3)cc21)C(C)(C)O [WO2022076495, EXAMPLE 73b]	0.0033 µM
C[C@@H](n1c(=O)n(-c2cc(OC(F)(F)F)ccc2F)c2cc(F)c(C(=O)NC3(C)CCS(=O)(=O)CC3)cc21)C(C)(C)O [WO2022076495, EXAMPLE 70b]	0.03 µM
CCOc1cc(-n2c(=O)n([C@@H](C)C(C)(C)O)c3cc(C(=O)NC4(C)CS(=O)(=O)C4)ccc32)c(F)cn1 [WO2022076495, EXAMPLE 78b]	0.013 µM
C[C@@H](n1c(=O)n(-c2cc(OCC(F)F)ncc2F)c2ccc(C(=O)NC3(C)CCS(=O)(=O)CC3)cc21)C(C)(C)O [WO2022076495, EXAMPLE 72b]	0.0066 µM
C[C@@H](n1c(=O)n(-c2cccc(OC(F)(F)C(F)F)c2)c2ccc(C(=O)NC3(C)CS(=O)(=O)C3)cc21)C(C)(C)O [WO2022076495, EXAMPLE 76a]	0.08 µM

SMILES	IC50
C[C@H](C(F)F)n1c(=O)n(-c2cccc(OC(F)F)c2)c2ccc(C(=O)NC3(C)CCS(=O)(=O)CC3)cc21 [WO2022076495, EXAMPLE 45a]	0.012 µM
CC(C)n1c(=O)n(-c2cc(OCC(F)F)ncc2F)c2ccc(C(=O)NC3(C)CCS(=O)(=O)CC3)cc21 [WO2022076495, EXAMPLE 15]	0.0067 µM
C[C@@H](n1c(=O)n(-c2cc(OCC(F)F)ncc2F)c2cc(F)c(C(=O)NC3(C)CCS(=O)(=O)CC3)cc21)C(C)(C)O [WO2022076495, EXAMPLE 74b]	0.0065 µM
CC(C)n1c(=O)n(-c2cc(OC(F)(F)C(F)F)ncc2F)c2cc(F)c(C(=O)NC3(C)CCS(=O)(=O)CC3)cc21 [WO2022076495, EXAMPLE 118]	0.0055 µM
CC(C)n1c(=O)n(-c2cccc(OC(F)F)c2)c2ccc(C(=O)NCC3(O)CCOC3)cc21 (stereo unspecified) [WO2022076495, EXAMPLE 62]	> 9.99 µM
CC1(NC(=O)c2cc3c(cc2F)n(-c2cccc(OC(F)F)c2)c(=O)n3C2CCOCC2)CS(=O)(=O)C1 [WO2022076495, EXAMPLE 36]	0.019 µM
C[C@@H](n1c(=O)n(-c2cccc(OC(F)(F)C(F)F)c2)c2cc(F)c(C(=O)NC3(C)CCS(=O)(=O)CC3)cc21)C(C)(C)O [WO2022076495, EXAMPLE 77b]	0.0098 µM
C[C@H](n1c(=O)n(-c2cccc(OC(F)(F)C(F)F)c2)c2cc(F)c(C(=O)NC3(C)CCS(=O)(=O)CC3)cc21)C(C)(C)O [WO2022076495, EXAMPLE 77a]	0.0056 µM
CCOc1cc(-n2c(=O)n([C@H](C)C(C)(C)O)c3cc(C(=O)NC4(C)CS(=O)(=O)C4)ccc32)c(F)cn1 [WO2022076495, EXAMPLE 78a]	0.123 µM
CC(C)n1c(=O)n(-c2cc(OC(F)F)ccc2F)c2ncc(C(=O)NC3(C)CCS(=O)(=O)CC3)cc21 [WO2022076495, EXAMPLE 103]	0.074 µM
CCOc1cc(-n2c(=O)n([C@H](C)C(C)(C)O)c3cc(C(=O)NC4(C)CCS(=O)(=O)CC4)ccc32)c(F)cn1 [WO2022076495, EXAMPLE 69b]	0.0039 µM
CC[C@H](C)n1c(=O)n(-c2cccc(OC(F)F)c2)c2ccc(C(=O)NC3(C)CS(=O)(=O)C3)cc21 [WO2022076495, EXAMPLE 46b]	0.092 µM
C[C@H](n1c(=O)n(-c2cc(OCC(F)F)ncc2F)c2cc(F)c(C(=O)NC3(C)CCS(=O)(=O)CC3)cc21)C(C)(C)O [WO2022076495, EXAMPLE 74a]	0.0061 µM
C[C@H](n1c(=O)n(-c2cccc(OC(F)(F)C(F)F)c2)c2ccc(C(=O)NC3(C)CS(=O)(=O)C3)cc21)C(C)(C)O [WO2022076495, EXAMPLE 76b]	0.0079 µM
C[C@@H](C(F)F)n1c(=O)n(-c2cccc(OC(F)F)c2)c2ccc(C(=O)NC3(C)CCS(=O)(=O)CC3)cc21 [WO2022076495, EXAMPLE 45b]	0.101 µM
CC(C)n1c(=O)n(-c2cccc(OC(F)F)c2)c2cc(F)c(C(=O)N[C@@H]3CCCC[C@H]3O)cc21 [WO2022076495, EXAMPLE 31]	0.106 µM
CC(C)n1c(=O)n(-c2cccc(OC(F)F)c2)c2cc(F)c(C(=O)NC(C)C(C)(C)O)cc21 (stereo unspecified) [WO2022076495, EXAMPLE 27]	> 10 µM
CC(C)(O)Cn1c(=O)n(-c2cccc(OC(F)F)c2)c2ccc(C(=O)NC3(C)CS(=O)(=O)C3)cc21 [WO2022076495, EXAMPLE 64]	0.037 µM
CC(C)n1c(=O)n(-c2cc(OC(F)F)ncc2F)c2cc(F)c(C(=O)NC3(C)CCS(=O)(=O)CC3)cc21 [WO2022076495, EXAMPLE 115]	0.0041 µM
C[C@@H](n1c(=O)n(-c2cc(OC(F)F)ccc2F)c2ccc(C(=O)NC3(C)CCS(=O)(=O)CC3)cc21)C(C)(C)O [WO2022076495, EXAMPLE 66b]	0.017 µM
C[C@H](n1c(=O)n(-c2cc(OC(F)F)ccc2F)c2ccc(C(=O)NC3(C)CCS(=O)(=O)CC3)cc21)C(C)(C)O [WO2022076495, EXAMPLE 66a]	0.0011 µM
CC(C)n1c(=O)n(-c2cccc(OC(F)F)c2)c2cc(F)c(C(=O)NC3(C)CS(=O)(=O)C3)cc21 [WO2022076495, EXAMPLE 24]	0.066 µM and 0.054 µM
C[C@@H](n1c(=O)n(-c2cc(OCC(F)F)ccc2F)c2cc(F)c(C(=O)NC3(C)CCS(=O)(=O)CC3)cc21)C(C)(C)O [WO2022076495, EXAMPLE 75b]	0.0024 µM
CCn1c(=O)n(-c2cccc(OC(F)F)c2)c2cc(F)c(C(=O)NC3(C)CS(=O)(=O)C3)cc21 [WO2022076495, EXAMPLE 40]	0.194 µM
CC(C)n1c(=O)n(-c2cccc(OC(F)(F)C(F)(F)F)c2)c2ccc(C(=O)NC3(C)CS(=O)(=O)C3)cc21 [WO2022076495, EXAMPLE 7]	0.016 µM
